Assay results from BigSolDB 2.1.

CC(=O)C1=C(O)C=C2Oc3c(C(C)=O)c(O)c(C)c(O)c3C2(C)C1=O (stereo in doubt)
solubility (mole fraction)
Settings | in acetone | in ethanol | in ethyl acetate | in n-hexane | in water
278.15 K | 0.000422 | – | – | – | –
283.15 K | 0.000454 | – | – | – | –
288.15 K | 0.000541 | 3.09e-05 | 0.00109 | 5.97e-05 | 2.81e-07
293.15 K | 0.00061 | 4.23e-05 | 0.00125 | 6.97e-05 | 2.99e-07
298.15 K | 0.000747 | 5.3e-05 | 0.00158 | 8.06e-05 | 3.31e-07
303.15 K | 0.000879 | 6.8e-05 | 0.00189 | 9.43e-05 | 3.52e-07
308.15 K | 0.000978 | 9.3e-05 | 0.00216 | 0.000106 | 3.75e-07
313.15 K | 0.00121 | 0.000114 | 0.00275 | 0.000128 | 4.06e-07
318.15 K | 0.00165 | 0.000121 | 0.00314 | 0.000149 | 4.46e-07
323.15 K | 0.00197 | 0.000148 | 0.0038 | 0.000176 | 4.77e-07
328.15 K | – | 0.000203 | 0.00444 | 0.000224 | 5.3e-07
333.15 K | – | 0.000234 | 0.00518 | 0.000256 | 5.94e-07
338.15 K | – | 0.000274 | 0.00689 | 0.00029 | 6.61e-07
